ChEMBL document CHEMBL1201861, “Genomics of Drug Sensitity in Cancer screening data, Wellcome Trust Sanger Institute”

Tests used:
Assay in all cases: cells
EKVX = type: functional, cell-based, Homo sapiens; details: Homo sapiens, EKVX;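 note: growth inhibition of human EKVX cells, read out with a cell viability assay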
Description: SANGER: Inhibition of human EKVX cell growth in a cell viability assay.

NCI-H2052 = type: functional, cell-based, Homo sapiens; details: Homo sapiens, NCI-H2052;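 note: growth inhibition of NCI-H2052 cells, read out with a cell viability assay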
Description: SANGER: Inhibition of human NCI-H2052 cell growth in a cell viability assay.

HSC-3 = type: functional, cell-based, Homo sapiens; details: Homo sapiens, HSC-3
Description: SANGER: Inhibition of human HSC-3 cell growth in a cell viability assay.

A-431 = type: functional, cell-based, Homo sapiens; details: Homo sapiens, A-431;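 note: growth inhibition of A-431 cells, determined with a cell viability read-out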
Description: SANGER: Inhibition of human A431 cell growth in a cell viability assay.

MDA-MB-415 = type: functional, cell-based; details: Homo sapiens
HLE = type: functional, cell-based, Homo sapiens; details: Homo sapiens, HLE;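 note: growth inhibition of human HLE cells, read out by a cell viability assay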
Description: SANGER: Inhibition of human HLE cell growth in a cell viability assay.

LN-405 = type: functional, cell-based, Homo sapiens; details: Homo sapiens, LN-405
Description: SANGER: Inhibition of human LN-405 cell growth in a cell viability assay.

NCI-H226 = type: functional, cell-based, Homo sapiens; details: Homo sapiens, NCI-H226;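 note: cell viability read-out used to gauge growth inhibition of the cells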
Description: SANGER: Inhibition of human NCI-H226 cell growth in a cell viability assay.

NCI-H596 = type: functional, cell-based, Homo sapiens; details: Homo sapiens, NCI-H596;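 note: growth inhibition of NCI-H596 cells, read out with a cell viability assay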
Description: SANGER: Inhibition of human NCI-H596 cell growth in a cell viability assay.

EW-1 = type: functional, cell-based, Homo sapiens; details: Homo sapiens, EW-1;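 note: growth inhibition of the human EW-1 cell line, read out by a cell viability assay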
Description: SANGER: Inhibition of human EW-1 cell growth in a cell viability assay.

8305C = type: functional, cell-based, Homo sapiens; details: Homo sapiens, 8305C
Description: SANGER: Inhibition of human 8305C cell growth in a cell viability assay.

CAL-27 = type: functional, cell-based, Homo sapiens; details: Homo sapiens, CAL-27;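 note: Viability-based readout, IC50 reflecting inhibition of CAL-27 cell growth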
Description: SANGER: Inhibition of human CAL-27 cell growth in a cell viability assay.

D-392MG = type: functional, cell-based, Homo sapiens; details: Homo sapiens, D-392MG
MSTO-211H = type: functional, cell-based, Homo sapiens; details: Homo sapiens, MSTO-211H
Description: SANGER: Inhibition of human MSTO-211H cell growth in a cell viability assay.

SK-HEP1 = type: functional, cell-based, Homo sapiens, SK-HEP-1; details: Homo sapiens, SK-HEP1;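 note: cell viability readout used to quantify reduction in proliferation of human SK-HEP-1 cells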
Description: SANGER: Inhibition of human SK-HEP-1 cell growth in a cell viability assay.

SN12C = type: functional, cell-based, Homo sapiens; details: Homo sapiens, SN12C;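 note: growth inhibition of human SN12C cells, measured by a cell viability assay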
Description: SANGER: Inhibition of human SN12C cell growth in a cell viability assay.

TGBC24TKB = type: functional, cell-based, Homo sapiens; details: Homo sapiens, TGBC24TKB;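 note: growth inhibition of human TGBC24TKB cells, read out with a cell viability assay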
Description: SANGER: Inhibition of human TGBC24TKB cell growth in a cell viability assay.

HT-1376 = type: functional, cell-based, Homo sapiens; details: Homo sapiens, HT-1376
Description: SANGER: Inhibition of human HT-1376 cell growth in a cell viability assay.

SNB-75 = type: functional, cell-based, Homo sapiens; details: Homo sapiens, SNB-75;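 note: cell viability assay measuring growth inhibition of human SNB-75 cells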
Description: SANGER: Inhibition of human SNB75 cell growth in a cell viability assay.

A498 = type: functional, cell-based, Homo sapiens; details: Homo sapiens, A498;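 note: growth inhibition of human A498 cells, read out with a cell viability assay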
Description: SANGER: Inhibition of human A498 cell growth in a cell viability assay.

COR-L105 = type: functional, cell-based, Homo sapiens; details: Homo sapiens, COR-L105;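 note: cell growth inhibition determined with a viability assay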
Description: SANGER: Inhibition of human COR-L105 cell growth in a cell viability assay.

RERF-LC-MS = type: functional, cell-based, Homo sapiens; details: Homo sapiens, RERF-LC-MS;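 note: growth inhibition of human RERF-LC-MS cells, read out by a cell viability assay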
Description: SANGER: Inhibition of human RERF-LC-MS cell growth in a cell viability assay.

NCI-H2030 = type: functional, cell-based, Homo sapiens; details: Homo sapiens, NCI-H2030;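 note: growth inhibition of human NCI-H2030 cells, read out by a cell viability assay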
Description: SANGER: Inhibition of human NCI-H2030 cell growth in a cell viability assay.

SW1417 = type: functional, cell-based, Homo sapiens; details: Homo sapiens, SW1417;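 note: growth inhibition of human SW1417 cells, read out with a cell viability assay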
Description: SANGER: Inhibition of human SW1417 cell growth in a cell viability assay.

SW13 = type: functional, cell-based, Homo sapiens; details: Homo sapiens, SW13;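 note: IC50 is inhibition of SW13 cell growth, read out with a cell viability assay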
Description: SANGER: Inhibition of human SW13 cell growth in a cell viability assay.

Mo = type: functional, cell-based; details: Homo sapiens
Description: SANGER: Inhibition of human Mo-T cell growth in a cell viability assay.

COLO-679 = type: functional, cell-based, Homo sapiens; details: Homo sapiens, COLO-679
Description: SANGER: Inhibition of human COLO-679 cell growth in a cell viability assay.

SW1088 = type: functional, cell-based, Homo sapiens; details: Homo sapiens, SW1088;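 note: growth inhibition of human SW1088 cells, read out by a cell viability assay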
Description: SANGER: Inhibition of human SW1088 cell growth in a cell viability assay.

Calu-3 = type: functional, cell-based, Homo sapiens; details: Homo sapiens, Calu-3;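 note: growth inhibition of human Calu-3 cells, determined with a cell viability assay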
Description: SANGER: Inhibition of human Calu-3 cell growth in a cell viability assay.

BEN = type: functional, cell-based, Homo sapiens; details: Homo sapiens, BEN;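 note: growth inhibition of the BEN cell line, read out with a cell viability assay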
Description: SANGER: Inhibition of human BEN cell growth in a cell viability assay.

TCC-SUP = type: functional, cell-based, Homo sapiens; details: Homo sapiens, TCC-SUP;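 note: growth inhibition of TCC-SUP cells, read out with a cell viability assay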
Description: SANGER: Inhibition of human TCCSUP cell growth in a cell viability assay.

C-33-A = type: functional, cell-based, Homo sapiens; details: Homo sapiens, C-33-A;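 note: cell viability assay measuring growth inhibition of C-33-A cells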
Description: SANGER: Inhibition of human C-33-A cell growth in a cell viability assay.

LU-99A = type: functional, cell-based, Homo sapiens; details: Homo sapiens, LU-99A;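 note: growth inhibition of LU-99A cells, read out with a cell viability assay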
Description: SANGER: Inhibition of human LU-99A cell growth in a cell viability assay.

MDA-MB-361 = type: functional, cell-based, Homo sapiens; details: Homo sapiens, MDA-MB-361
CAL-54 = type: functional, cell-based, Homo sapiens; details: Homo sapiens, CAL-54;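 note: growth inhibition of CAL-54 cells, read out by a viability measurement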
Description: SANGER: Inhibition of human CAL-54 cell growth in a cell viability assay.

DK-MG = type: functional, cell-based, Homo sapiens; details: Homo sapiens, DK-MG;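 note: growth inhibition of DK-MG cells, read out with a cell viability assay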
Description: SANGER: Inhibition of human DK-MG cell growth in a cell viability assay.

no-10 = type: functional, cell-based, Homo sapiens; details: Homo sapiens;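 note: growth inhibition of no-10 cells, read out with a cell viability assay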
Description: SANGER: Inhibition of human no-10 cell growth in a cell viability assay.

Hs-578T = type: functional, cell-based, Homo sapiens; details: Homo sapiens, Hs-578T
Description: SANGER: Inhibition of human Hs-578-T cell growth in a cell viability assay.

A673 = type: functional, cell-based, Homo sapiens; details: Homo sapiens, A673;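 note: growth inhibition of human A673 cells, read out through a cell viability assay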
Description: SANGER: Inhibition of human A673 cell growth in a cell viability assay.

PANC-03-27 = type: functional, cell-based, Homo sapiens; details: Homo sapiens, PANC-03-27
Description: SANGER: Inhibition of human PANC-03-27 cell growth in a cell viability assay.

CAMA-1 = type: functional, cell-based, Homo sapiens; details: Homo sapiens, CAMA-1;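 note: growth inhibition of CAMA-1 cells, read out with a cell viability assay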
Description: SANGER: Inhibition of human CAMA-1 cell growth in a cell viability assay.

SK-MEL3 = type: functional, cell-based, Homo sapiens, SK-MEL-3; details: Homo sapiens, SK-MEL3;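 note: growth inhibition of human SK-MEL-3 cells, read out with a cell viability assay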
Description: SANGER: Inhibition of human SK-MEL-3 cell growth in a cell viability assay.

C3A = type: functional, cell-based, Homo sapiens; details: Homo sapiens, C3A;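 note: growth inhibition of C3A human cells, quantified with a cell viability readout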
Description: SANGER: Inhibition of human C3A cell growth in a cell viability assay.

QIMR-WIL = type: functional, cell-based; details: Homo sapiens;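 note: growth inhibition of QIMR-WIL cells, read out with a cell viability assay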
Description: SANGER: Inhibition of human QIMR-WIL cell growth in a cell viability assay.

PC-14 = type: functional, cell-based, Homo sapiens; details: Homo sapiens, PC-14;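 note: cell viability assay measuring inhibition of PC-14 cell growth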
Description: SANGER: Inhibition of human PC-14 cell growth in a cell viability assay.

BT-474 = type: functional, cell-based, Homo sapiens; details: Homo sapiens, BT-474
Description: SANGER: Inhibition of human BT-474 cell growth in a cell viability assay.

COc1cc(F)c(F)c(Nc2ccc(I)cc2F)c1NS(=O)(=O)C1(CC(O)CO)CC1 (configuration not stated)
IC50 (EKVX): > 5000 nM | IC50 (NCI-H2052): > 5000 nM | IC50 (HSC-3): 307 nM | IC50 (A-431): 2920 nM | IC50 (MDA-MB-415): > 5000 nM | IC50 (HLE): > 5000 nM | IC50 (LN-405): > 5000 nM | IC50 (NCI-H226): > 5000 nM | IC50 (NCI-H596): > 5000 nM | IC50 (EW-1): > 5000 nM | IC50 (8305C): 1290 nM | IC50 (CAL-27): > 5000 nM | IC50 (D-392MG): > 5000 nM | IC50 (MSTO-211H): 3080 nM | IC50 (SK-HEP1): 2050 nM | IC50 (SN12C): > 5000 nM | IC50 (TGBC24TKB): > 5000 nM | IC50 (HT-1376): > 5000 nM | IC50 (SNB-75): > 5000 nM | IC50 (A498): > 5000 nM | IC50 (COR-L105): > 5000 nM | IC50 (RERF-LC-MS): 1330 nM | IC50 (NCI-H2030): > 5000 nM | IC50 (SW1417): > 5000 nM | IC50 (SW13): 4330 nM | IC50 (Mo): > 5000 nM | IC50 (COLO-679): 153 nM | IC50 (SW1088): > 5000 nM | IC50 (Calu-3): 4900 nM | IC50 (BEN): > 5000 nM | IC50 (TCC-SUP): > 5000 nM | IC50 (C-33-A): > 5000 nM | IC50 (LU-99A): 3960 nM | IC50 (MDA-MB-361): > 5000 nM | IC50 (CAL-54): > 5000 nM | IC50 (DK-MG): 2830 nM | IC50 (no-10): > 5000 nM | IC50 (Hs-578T): 1760 nM | IC50 (A673): > 5000 nM | IC50 (PANC-03-27): 768 nM | IC50 (CAMA-1): > 5000 nM | IC50 (SK-MEL3): 2460 nM | IC50 (C3A): > 5000 nM | IC50 (QIMR-WIL): > 5000 nM | IC50 (PC-14): 4170 nM | IC50 (BT-474): > 5000 nM

COc1ccc(-c2ccc3c(N4CCOC[C@@H]4C)nc(N4CCOC[C@@H]4C)nc3n2)cc1CO [AZD-8055]
IC50 (EKVX): 1140 nM | IC50 (NCI-H2052): 1860 nM | IC50 (HSC-3): 429 nM | IC50 (A-431): 831 nM | IC50 (MDA-MB-415): 1220 nM | IC50 (HLE): 748 nM | IC50 (LN-405): 1280 nM | IC50 (NCI-H226): > 2000 nM | IC50 (NCI-H596): 1260 nM | IC50 (EW-1): 1610 nM | IC50 (8305C): 708 nM | IC50 (CAL-27): > 2000 nM | IC50 (D-392MG): > 2000 nM | IC50 (MSTO-211H): 578 nM | IC50 (SK-HEP1): > 2000 nM | IC50 (SN12C): 807 nM | IC50 (TGBC24TKB): 1860 nM | IC50 (HT-1376): > 2000 nM | IC50 (SNB-75): 1750 nM | IC50 (A498): > 2000 nM | IC50 (COR-L105): > 2000 nM | IC50 (RERF-LC-MS): > 2000 nM | IC50 (NCI-H2030): 1240 nM | IC50 (SW1417): > 2000 nM | IC50 (SW13): 984 nM | IC50 (Mo): > 2000 nM | IC50 (COLO-679): > 2000 nM | IC50 (SW1088): 1370 nM | IC50 (Calu-3): 1650 nM | IC50 (BEN): 213 nM | IC50 (TCC-SUP): 1470 nM | IC50 (C-33-A): 904 nM | IC50 (LU-99A): 776 nM | IC50 (MDA-MB-361): 509 nM | IC50 (CAL-54): 1830 nM | IC50 (DK-MG): > 2000 nM | IC50 (no-10): > 2000 nM | IC50 (Hs-578T): 599 nM | IC50 (A673): > 2000 nM | IC50 (PANC-03-27): 1030 nM | IC50 (CAMA-1): 622 nM | IC50 (SK-MEL3): 1250 nM | IC50 (C3A): > 2000 nM | IC50 (QIMR-WIL): 452 nM | IC50 (PC-14): 590 nM | IC50 (BT-474): 1780 nM
